Data on 78 molecules can be found in PubChem BioAssay AID504322 (Emory University Molecular Libraries Screening Center, 2011).

The source made the active and inactive calls. No rule for the calls is given here.

This test has as its system CHOP reporter cell assay, percent of control. Kind of test: CHOP reporter inhibitor potency, dose response, cell-based (AID 504322).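 Also: CHO cells carrying a CHOP reporter stimulated with tunicamycin to induce ER stress; potency is for inhibition of the stress-induced reporter signal.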
Take `Cc1ccc(OCC(=O)N/N=C/c2cn[nH]c2-c2ccc(Cl)c(Cl)c2)cc1`: the IC50 (in general, the concentration at which inhibition is half-maximal) is 6.3 µM (inactive).

Turning to `N#C/C(=C\c1ccc([N+](=O)[O-])o1)c1nc2ccccc2[nH]1`, the IC50 was 2.74 µM. Under `COC(=O)CS(=O)(=O)c1nnc([C@H](Cc2ccccc2)NC(=O)OC(C)(C)C)o1` stands 4.68 µM; under `Nc1nc(-c2ccccc2)c(N=Nc2ccccc2Cl)s1`, 8.65 µM (inactive); under `CCCOc1ccc(N2C(=O)CC(SC(=NC)Nc3ccc(F)cc3)C2=O)cc1` (stereo not drawn), > 10 µM (inactive). For `CC(=O)OCCCNc1cc(Sc2ccc(Cl)cc2)c2nonc2c1[N+](=O)[O-]`, the IC50 was > 10 µM (inactive). In the case of `NC(=O)CC(NC(=O)Cc1cccc2ccccc12)c1ccc(NCc2ccc(F)cc2)c([N+](=O)[O-])c1` (stereo not drawn), the IC50 was > 10 µM (inactive).

Regarding `C=C1C(=O)O[C@@H]2C[C@@H](C)[C@@H]3C=CC(=O)[C@@]3(C)[C@@H](OC(C)=O)[C@H]12`, the IC50 was 2.48 µM. As for `COC(=O)C(O)(c1ccc(NC(=S)NC(=O)c2ccc(Cl)cc2Cl)c(C)c1)C(F)(F)F` (stereo not drawn), the IC50 was 9.05 µM (inactive). Regarding `Clc1nssc1=Nc1ccc(Br)cc1`, the IC50 is 6.25 µM (inactive). Regarding `O=[N+]([O-])c1ccc(S(=O)(=O)CC(CN2CCCCC2)N2CCCCC2)cc1` (stereo not drawn), the IC50 is 5.93 µM (inactive).

For `CCOc1cc(NC(=S)NCC(C)C)c(OCC)cc1NC(=O)c1cccs1`, the IC50 was > 10 µM (inactive).

For the molecule `CC(C)=NOc1cc(NC(=O)CCl)cc([N+](=O)[O-])c1`, the IC50 is 9.61 µM (inactive). `N#CC1=C(N)N2C(=C(C#N)C1c1ccc(Br)cc1)Nc1ccccc12` (stereo not drawn): the IC50 was > 10 µM (inactive). Turning to `Cn1c(=O)cc(SCC(=O)NCCC2=CCCCC2)c2ccc(Cl)cc21`, the IC50 is 5.34 µM (inactive).

For `NC(=O)c1ccc(C(F)(F)F)n(Cc2ccc(Cl)cc2)c1=O`, the IC50 is 9.05 µM (inactive). In the case of `CC(C)C[C@H](NC(=O)OC(C)(C)C)C(=O)N/N=C/C1=Cc2ccccc2OC1C` (stereo partly drawn), the IC50 is 2.31 µM.

Turning to `Cc1ccc(C2CN(C)C3(C(=O)Nc4ccccc43)C23COc2ccccc2C3=O)cc1` (stereo not drawn), the IC50 was > 10 µM (inactive). For the molecule `Fc1ccc(-c2nn(-c3ccccc3)cc2CNCc2ccccc2)cc1`, the IC50 is 9.62 µM (inactive). Take `CC(NC(=O)/C(C#N)=C/c1ccc(Cl)c([N+](=O)[O-])c1)c1ccccc1` (stereo not drawn): the IC50 is 9.98 µM (inactive). With `Cc1cc(C)c2nc(C(F)(F)F)c(C#N)c(N)c2c1`, the IC50 is 8.25 µM (inactive). In the case of `CCc1nc2c(cnn2-c2ccc(Cl)cc2)c(=O)n1-c1ccc(OC)cc1`, the IC50 was 8.14 µM (inactive).

As for `N#C/C(=C\c1ccc([N+](=O)[O-])o1)C(=O)Nc1ccc(F)cc1`, the IC50 is > 10 µM (inactive). Under `CC1=CCC[C@@H]2[C@@](C)(CC/C(C)=C/C(=O)O)[C@H](C)CC[C@@]12C` stands 9.68 µM (inactive); under `C/C=C(\C)C(=O)OC1C(C)=C2C(C1OC(=O)CCCCC)C(C)(OC(C)=O)CC(OC(=O)CCC)C1(O)C2OC(=O)C1(C)O` (stereo not drawn), less than 0.16 µM; under `CCCCc1ccc(NC(=S)Nc2ccc(Cl)c(S(=O)(=O)N(C)C)c2)cc1`, > 10 µM (inactive).

Consider `O=S1(=O)C=C(Sc2nc3cc(Cl)ccc3o2)c2ccccc21`, for which the IC50 was 2.91 µM. Regarding `CC(C)CCn1c(=O)c(C(=O)N/N=C/c2cccc(F)c2)c(O)c2ccccc21`, the 50% inhibitory concentration (IC50) was 2.97 µM. As to `CN1/C(=C/C(=O)c2nc(S(C)(=O)=O)ncc2Cl)C(C)(C)c2ccccc21`, the IC50 is less than 0.16 µM. Consider `CCCCCCn1c(=O)c(C(=O)Nc2cnccn2)c(O)c2ccccc21`, for which the half-inhibitory concentration (IC50) was 2.64 µM.

Turning to `Cc1ccc(NC2=C/C(=N\S(=O)(=O)c3cccs3)c3ccccc3C2=O)c(C)c1`, the IC50 is 4.52 µM. On to `O=C1C=CC(=O)N1N(c1ccccc1)c1ccccc1`, for which the IC50 was > 10 µM (inactive). `C=C(C)COc1ccc(-c2n[nH]c(C)c2Oc2ccccc2OC)c(O)c1`: the IC50 is 8.82 µM (inactive). `CC(C)(C)OC(=O)CNC(=O)c1[nH]cnc1C(=O)Nc1ccc(Cl)cc1`: the IC50 is 4.69 µM (inactive).

Take `CCCNC(=O)c1nnsc1S(=O)c1ccc(Cl)cc1` (stereo not drawn): the IC50 was 5.55 µM (inactive). Under `O=[N+]([O-])c1c(NCCCO)cc(Sc2ccc(Cl)cc2)c2nonc12` stands 4.7 µM; under `CCCCn1c(=O)c(C(=O)Nc2cnccn2)c(O)c2ccccc21`, 7.31 µM (inactive); under `CC(C)C[C@H](NC(=O)c1[nH]cnc1C(=O)N[C@@H](C)C(=O)OC(C)(C)C)C(=O)OC(C)(C)C`, 3.69 µM (inactive). `CCOc1cc(/C=C\[N+](=O)[O-])ccc1OCC(=O)Nc1ccccc1C`: the IC50 was 4.96 µM (inactive). Turning to `COc1ccc(C(C(=O)NC2CCCCC2)N(C(=O)CCl)c2cccc(Cl)c2)cc1` (stereo not drawn), the IC50 is 9.57 µM (inactive). For `CC(C)(C)c1cc(-c2csc(Nc3ccccc3)[n+]2Cc2ccc(C(=O)O)cc2)cc(C(C)(C)C)c1O`, the IC50 is 9.46 µM (inactive).

Consider `CCCCCCCCCS(=O)(=O)N/N=C/c1cccc([N+](=O)[O-])c1`, for which the IC50 is 3.9 µM (inactive). As to `CC(=O)N(C1=C(Cl)C(=O)c2ccccc2C1=O)C1CCCCC1`, the IC50 is 8.08 µM (inactive). Then `NC(=O)c1cc(-c2ccccc2)nc(N2CCCCCC2)n1`, with 9.62 µM (inactive); and `CCOC(=O)c1c(C)[nH]c(C(=O)COC(=O)c2[nH]c(C)c(C(C)=O)c2C)c1C`, with > 10 µM (inactive); and `CC1(c2ccc(OC(F)F)cc2)NC(=O)N(/N=C/c2c(O)ccc3ccccc23)C1=O` (stereo not drawn), with 8.25 µM (inactive). `Cc1cc(/C=N/n2cnnc2)c(C)n1-c1ccc(OCc2ccc(Cl)cc2)cc1`: the half-inhibitory concentration (IC50) was 0.38 µM. Consider `C=CCOC(=O)C1=C(C)NC(C)=C(C(=O)OCC=C)C1/C=C/c1ccccc1`, for which the IC50 is 5.02 µM (inactive). For `CCCNC(=O)c1nnsc1S(=O)(=O)c1ccc(Cl)cc1`, the IC50 was 2.02 µM (inactive). Turning to `CCN1/C(=C/c2ccc3cc(C)ccc3[n+]2C)Sc2ccc3sccc3c21`, the IC50 is 5.29 µM (inactive). Then `O=C(Nc1cccc(Cl)c1)Nc1ccnc(-c2cccnc2)n1`, with > 10 µM (inactive).

Regarding `Cc1cc(-c2n[nH]c(=S)n2/N=C/C(Br)=C/c2ccccc2)n[nH]1`, the IC50 was > 10 µM (inactive). For `CC(=O)C(C(C)=O)c1c(Cl)c(O)c(O)c2c(C(=O)c3ccccc3)coc12`, the IC50 was 5.67 µM (inactive). Then `O=S1(=O)C=C(Sc2nc3ccccc3s2)c2ccccc21`, with 1.26 µM. With `COc1ccc(/C=C2/SC(=S)N(CCCC(=O)Nc3ccc(O)cc3)C2=O)cc1`, the half-inhibitory concentration (IC50) is 0.25 µM. Then `Cc1ccc(C(=O)N/C(=C\c2ccc(Br)cc2)c2nc(=S)[nH][nH]2)cc1`, with 9.7 µM (inactive). As for `Cc1ccc(-c2ccc(/C=C(\C#N)C(=O)Nc3cc(C)nn3-c3ccccc3)o2)cc1`, the IC50 is 6.7 µM (inactive).

As to `COc1ccc(N2C(=O)CC(Sc3nnnn3-c3ccc(F)cc3)C2=O)cc1` (stereo not drawn), the IC50 was 0.24 µM. With `C=CCn1c(SCC(=O)c2[nH]c(C)c(C(=O)OC)c2C)nc2scc(-c3ccc(OC)c(OC)c3)c2c1=O`, the IC50 is 6.22 µM (inactive). With `O=C1C(=O)c2ccc(-c3ccccc3)cc2-c2ccccc21`, the half-inhibitory concentration (IC50) was 3.36 µM. Turning to `COc1cc(/C=N/O)cc(Br)c1OCc1cccc(Cl)c1`, the IC50 was 6.16 µM (inactive). On to `CCC(C)(C)c1ccc(Oc2ccc(N)cc2)cc1`, for which the IC50 was less than 0.16 µM.

For the molecule `O=C(ONc1ccc(N=NC(=O)c2ccccc2O)cc1)c1ccccc1`, the IC50 is > 10 µM (inactive). Then `C=CCn1c(CCc2cc(C(C)(C)C)c(O)c(C(C)(C)C)c2)n[nH]c1=S`, with 7 µM (inactive). Take `CCCCn1c(=O)[nH]c(=O)c2c1nc(-c1ccc(OCCC)c(OCC)c1)n2C`: the IC50 is > 10 µM (inactive). For `CC1=CC(C)(C)N(C(=O)c2ccc(F)cc2)c2cc3c(cc21)OCO3`, the IC50 was 5.31 µM (inactive). Turning to `CC1=CC(=O)C=C(C)C1=NOS(=O)(=O)c1ccccc1`, the IC50 is 5.48 µM (inactive). `Cc1nn(Cc2c(Cl)cccc2Cl)c(C)c1NC(=O)c1cc(C(C)C)on1`: the IC50 is > 10 µM (inactive). Then `COc1cc(OC)c(OC)cc1/C=N/Nc1ncnc2c1[nH]c1ccccc12`, with 9.19 µM (inactive); and `Cc1cc(Nc2ccc(Cl)cc2)nc(NCc2ccccc2)n1`, with > 10 µM (inactive). For `Cc1nn(Cc2c(Cl)cccc2Cl)c(C)c1NC(=O)c1cn(-c2ccccc2)nc1-c1ccccc1`, the IC50 was 4.8 µM. Regarding `CCCN1C=CC(=C2C(=O)c3ccccc3C2=O)C=C1`, the IC50 is 1.78 µM (inactive).

As for `C#CC(=O)N(c1ccc(OC)c(OC)c1)C(C(=O)NC1CCCC1)c1cccs1` (stereo not drawn), the IC50 is 5.28 µM (inactive). Then `CCSc1nc2ccccc2n1C(=O)/C=C\c1ccc(OC)c(OC)c1`, with 4.06 µM; and `CCOc1cccc(C(=O)Nc2cccc(-c3nnc(-c4ccc(C)cc4)o3)c2)c1`, with 2.62 µM; and `COc1cccc(C(=O)C(C#N)=C(SC)SC)c1`, with > 10 µM (inactive).

Consider `O=C(/C=C/Sc1ncn[nH]1)c1ccc(Cl)cc1`, for which the IC50 was > 10 µM (inactive). On to `CC(C)(C)c1cc(CN2CCCC(O)C2)c(O)c(C(C)(C)C)c1` (stereo not drawn), for which the concentration for half-maximal inhibition (IC50) is 5.02 µM.
